Reference: US8969405B2, “Anticancer compounds and methods of making and using same” (St. Jude Children's Research Hospital, priority 2008, dated 2015)

Assays:
[1] = system: JeKo-1 mantle cell lymphoma cell line; test: In vitro cytotoxicity analysis (XTT), 72-hour exposure; type: cell-based; conditions: Homo sapiens, JEKo1 cells
Method: (§1) Briefly, cell lines were seeded at various cell densities depending on the cell type.
(§2) Tables 1-3 display cytotoxicity data for exemplary compounds following a 72-hour exposure.

[2] = system: PC-3 prostate cancer cell line; test: as above; type: cell-based; conditions: Homo sapiens, PC3 cells
Method: as §1, §2

[3] = system: JVM-2 mantle cell lymphoma cell line; test: as above; type: cell-based; conditions: Homo sapiens, JVM-2 cells
Method: as §1, §2

[4] = system: WiDr colorectal cancer cell line; test: as above; type: cell-based; conditions: Homo sapiens, read-out: Cytotoxicity IC50
Method: as §1

[5] = Stability study in buffer solution by HPLC; type: physicochemical; conditions: 100 μM in PBS, pH 7.4
Method: Stability studies were performed for exemplary compounds 48 and 15. A 100 μM solution of compound 48 was prepared in buffer (PBS, pH 7.4) and warfarin was used as an internal standard. A sample was injected into a HPLC periodically starting at day 0 and ending at about 6 weeks to find out the stability of compound 48 in PBS solution. […] After 6 weeks, 58% of compound 48 remained in the buffer solution.

SMILES | IC50 [1] [µM] | IC50 [2] [µM] | IC50 [3] [µM] | IC50 [4] [µM] | compound remaining in the buffer solution ([5]; after 6 weeks) [%] | degradable products ([5]; after 1 day) | half-life at 100 μM ([5]; PBS buffer, read-out: calculated half life (converted)) [days]
CC(/C=C/[C@@H]1C[C@]2(CO2)CC(C)(C)O1)=C\C[C@H]1CC[C@@H](NC(=O)/C=C\[C@H](C)OC(=O)c2cccnc2)CC1 [Compound 21, (S,Z)-5-((1R,4R)-4-((2E,4E)-5-((3R,5S)-7,7-dimethyl-1,6-dioxaspiro[2.5]octan-5-yl)-3-methylpenta-2,4-dienyl)cyclohexylamino)-5-oxopent-3-en-2-yl nicotinate] | 0.16 | 8.1 | – | – | – | – | –
CC(/C=C/[C@@H]1C[C@]2(CO2)CC(C)(C)O1)=C\C[C@H]1CC[C@@H](NC(=O)/C=C\[C@H](C)OC(=O)c2cccn2C)CC1 [Compound 19, (S,Z)-5-((1R,4R)-4-((2E,4E)-5-((3R,5S)-7,7-Dimethyl-1,6-dioxaspiro[2.5]octan-5-yl)-3-methylpenta-2,4-dienyl)cyclohexylamino)-5-oxopent-3-en-2-yl 1-methyl-1H-pyrrole-2-carboxylate] | 0.39 | 4.3 | – | – | – | – | –
COc1cccc(N2CCN(C(=O)O[C@@H](C)/C=C\C(=O)N[C@H]3CC[C@@H](C/C=C(C)/C=C/[C@@H]4C[C@]5(CO5)CC(C)(C)O4)CC3)CC2)c1 [Compound 25, (S,Z)-5-((1R,4R)-4-((2E,4E)-5-((3R,5S)-7,7-dimethyl-1,6-dioxaspiro[2.5]octan-5-yl)-3-methylpenta-2,4-dienyl)cyclohexylamino)-5-oxopent-3-en-2-yl 4-(3-methoxyphenyl)piperazine-1-carboxylate] | > 0.5 | > 2.5 | > 0.5 | > 1.25 | – | – | –
CC(/C=C/[C@@H]1C[C@]2(CO2)CC(C)(C)O1)=C\C[C@H]1CC[C@@H](NC(=O)/C=C\[C@H](C)OC(=O)N2CCN(C)CC2)CC1 [Compound 26, (S,Z)-5-((1R,4R)-4-((2E,4E)-5-((3R,5S)-7,7-dimethyl-1,6-dioxaspiro[2.5]octan-5-yl)-3-methylpenta-2,4-dienyl)cyclohexylamino)-5-oxopent-3-en-2-yl 4-methylpiperazine-1-carboxylate] | > 0.5 | > 2.5 | > 0.5 | > 0.5 | – | – | –
CC(/C=C/[C@@H]1C[C@]2(CO2)CC(C)(C)O1)=C\C[C@H]1CC[C@@H](NC(=O)/C=C\[C@H](C)OC(=O)C2CCN(c3ccnc(C(F)(F)F)n3)CC2)CC1 [Compound 22, (S,Z)-5-((1R,4R)-4-((2E,4E)-5-((3R,5S)-7,7-dimethyl-1,6-dioxaspiro[2.5]octan-5-yl)-3-methylpenta-2,4-dienyl)cyclohexylamino)-5-oxopent-3-en-2-yl 1-(2-(trifluoromethyl)pyrimidin-4-yl)piperidine-4-carboxylate] | > 1 | > 10 | – | – | – | – | –
CC(/C=C/[C@@H]1C[C@]2(CO2)CC(C)(C)O1)=C\C[C@H]1CC[C@@H](NC(=O)/C=C\[C@H](C)OC(=O)c2ccccc2)CC1 [Compound 20, (S,Z)-5-((1R,4R)-4-((2E,4E)-5-((3R,5S)-7,7-dimethyl-1,6-dioxaspiro[2.5]octan-5-yl)-3-methylpenta-2,4-dienyl)cyclohexylamino)-5-oxopent-3-en-2-yl benzoate] | 0.41 | 4.9 | – | – | – | – | –
CC(/C=C/[C@@H]1C[C@]2(CO2)CC(C)(C)O1)=C\C[C@H]1CC[C@@H](NC(=O)/C=C\[C@H](C)OC(=O)c2ccco2)CC1 [Compound 18, (S,Z)-5-((1R,4R)-4-((2E,4E)-5-((3R,5S)-7,7-dimethyl-1,6-dioxaspiro[2.5]octan-5-yl)-3-methylpenta-2,4-dienyl)cyclohexylamino)-5-oxopent-3-en-2-yl furan-2-carboxylate] | 0.14 | 3.5 | – | – | – | – | –
CC(=O)O[C@@H](C)CCC(=O)N[C@H]1CO[C@@H](C/C=C(C)/C=C/[C@@H]2C[C@]3(CO3)CC(C)(C)O2)OC1 [Compound 53, (S)-5-((2R,5R)-2-((2E,4E)-5-((3R,5S)-7,7-dimethyl-1,6-dioxaspiro[2.5]octan-5-yl)-3-methylpenta-2,4-dienyl)-1,3-dioxan-5-ylamino)-5-oxopentan-2-yl acetate] | > 1 | > 10 | – | – | – | – | –
CC(/C=C/[C@H]1OCC[C@@]2(CO2)[C@@H]1O)=C\C[C@H]1CC[C@@H](NC(=O)/C=C\[C@H](C)OC(=O)C(C)C)CC1 [Compound 38, (S,Z)-5-((1S,4R)-4-((2E,4E)-5-((3R,4R,5R)-4-hydroxy-1,6-dioxaspiro[2.5]octan-5-yl)-3-methylpenta-2,4-dienyl)cyclohexylamino)-5-oxopent-3-en-2-yl isobutyrate] | > 1 | > 10 | – | – | – | – | –
CC(/C=C/[C@@H]1C[C@]2(CO2)CC(C)(C)O1)=C\C[C@H]1CC[C@@H](NC(=O)/C=C\[C@H](C)OC(=O)N2CCN(CCO)CC2)CC1 [Compound 27, (S,Z)-5-((1R,4R)-4-((2E,4E)-5-((3R,5S)-7,7-dimethyl-1,6-dioxaspiro[2.5]octan-5-yl)-3-methylpenta-2,4-dienyl)cyclohexylamino)-5-oxopent-3-en-2-yl 4-(2-hydroxyethyl)piperazine-1-carboxylate] | > 0.5 | > 2.5 | > 0.5 | > 1.25 | – | – | –
CC(/C=C/[C@@H]1C[C@]2(CO2)CC(C)(C)O1)=C\C[C@H]1CC[C@@H](NC(=O)/C=C\[C@H](C)OC(=O)C2CCN(C)CC2)CC1 [Compound 16, (S,Z)-5-((1R,4R)-4-((2E,4E)-5-((3R,5S)-7,7-dimethyl-1,6-dioxaspiro[2.5]octan-5-yl)-3-methylpenta-2,4-dienyl)cyclohexylamino)-5-oxopent-3-en-2-yl 1-methylpiperidine-4-carboxylate] | > 1 | 10 | – | – | – | – | –
CC(/C=C/[C@@H]1C[C@]2(CO2)CC(C)(C)O1)=C\C[C@H]1CC[C@@H](NC(=O)/C=C\[C@H](C)OC(=O)C(C)(C)C)CC1 [Compound 23, (S,Z)-5-((1R,4R)-4-((2E,4E)-5-((3R,5S)-7,7-dimethyl-1,6-dioxaspiro[2.5]octan-5-yl)-3-methylpenta-2,4-dienyl)cyclohexylamino)-5-oxopent-3-en-2-yl pivalate] | 0.03 | 0.76 | – | – | – | – | –
CC(/C=C/[C@@H]1C[C@]2(CO2)CC(C)(C)O1)=C\C[C@H]1CC[C@@H](NC(=O)/C=C\[C@H](C)OC(=O)C2CCOCC2)CC1 [Compound 17, (S,Z)-5-((1R,4R)-4-((2E,4E)-5-((3R,5S)-7,7-dimethyl-1,6-dioxaspiro[2.5]octan-5-yl)-3-methylpenta-2,4-dienyl)cyclohexylamino)-5-oxopent-3-en-2-yl tetrahydro-2H-pyran-4-carboxylate] | 0.44 | 1.97 | – | – | – | – | –
CC(/C=C/[C@@H]1C[C@](O)(CCl)CC(C)(C)O1)=C\C[C@H]1CC[C@@H](NC(=O)/C=C\[C@H](C)OC(=O)N2CCN(C3CCCCCC3)CC2)CC1 [Compound 28, (S,Z)-5-((1R,4R)-4-((2E,4E)-5-((2S,4R)-4-(chloromethyl)-4-hydroxy-6,6-dimethyltetrahydro-2H-pyran-2-yl)-3-methylpenta-2,4-dienyl)cyclohexylamino)-5-oxopent-3-en-2-yl 4-cycloheptylpiperazine-1-carboxylate] | – | > 5 | > 10 | > 1.25 | – | – | –
CC(/C=C/[C@@H]1C[C@]2(CO2)CC(C)(C)O1)=C\C[C@H]1OC[C@@H](NC(=O)/C=C\[C@H](C)OC(=O)C(C)(C)C)CO1 [Compound 49, (S,Z)-5-((2R,5R)-2-((2E,4E)-5-((3R,5S)-7,7-dimethyl-1,6-dioxaspiro[2.5]octan-5-yl)-3-methylpenta-2,4-dienyl)-1,3-dioxan-5-ylamino)-5-oxopent-3-en-2-yl pivalate] | 0.34 | 1.18 | – | – | – | – | –
CC(/C=C/[C@@H]1C[C@]2(CO2)CC(C)(C)O1)=C\C[C@H]1OC[C@@H](NC(=O)/C=C\[C@H](C)OC(=O)C(C)C)CO1 [Compound 48, (S,Z)-5-((2R,5R)-2-((2E,4E)-5-((3R,5S)-7,7-dimethyl-1,6-dioxaspiro[2.5]octan-5-yl)-3-methylpenta-2,4-dienyl)-1,3-dioxan-5-ylamino)-5-oxopent-3-en-2-yl isobutyrate] | 0.17 | 5.2 | – | – | 58 | No degradable products were found | 50.4
CC(/C=C/[C@@H]1C[C@]2(CO2)CC(C)(C)O1)=C\C[C@H]1CC[C@@H](NC(=O)/C=C\[C@H](C)OC(=O)N2CCN(C3CCCCCC3)CC2)CC1 [Compound 24, (S,Z)-5-((1R,4R)-4-((2E,4E)-5-((3R,5S)-7,7-dimethyl-1,6-dioxaspiro[2.5]octan-5-yl)-3-methylpenta-2,4-dienyl)cyclohexylamino)-5-oxopent-3-en-2-yl 4-cycloheptylpiperazine-1-carboxylate] | – | > 0.5 | > 1 | – | – | – | –
